Source: article PMC11111404, “Discovery of potent small-molecule inhibitors of lipoprotein(a) formation” (Nature, 2024)
Where two headings read alike, the source gives them in different places.

Legend:
apo(a) KIV2 = target: T1, apo(a) KIV2 (Homo sapiens, UniProt P08519); experiment: ITC binding to apo(a) KIV2; details: for binding to KIV2 / Kd: ITC; for binding to KIV2: in words; for Fold-difference (KIV2:KIV8): ratio of ITC Kd values KIV2:KIV8
T1 construct: made in house
T1 sequence (P08519 141-219 limits assumed): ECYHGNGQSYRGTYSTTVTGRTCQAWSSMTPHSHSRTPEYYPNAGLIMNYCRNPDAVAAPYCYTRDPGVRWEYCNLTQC
Procedure: The nucleotide sequence encoding the human LPA gene (NP_005568.2) was inserted into a mammalian expression vector containing a cytomegalovirus promoter. Protein expression was performed by transient transfection of human embryonic kidney 293 (HEK293) cells cultured in serum-free medium. The culture medium was collected five days after transfection and human apo(a) protein was purified using L-lysine affinity chromatography. Nucleotide sequences encoding various KIV domains of human apo(a) and human and rat plasminogen were inserted into a pET21a Escherichia coli expression vector. Bacterial BL21(DE3) was used as the expression host, and the induction of protein expression was performed in 2× TY medium with 1 mM isopropyl β-D-1-thiogalactopyranoside at 37 °C for 5 h. Cells were collected and stored at –80 °C for subsequent protein purification and refolding. The frozen cell pellets were lysed and inclusion bodies were purified. The protein refolding was performed using the rapid-dilution method, and the refolded proteins were further purified by size-exclusion chromatography. All protein concentrations were determined by A280.
Experiments were performed on a MicroCal Auto-iTC200 titration calorimeter (Malvern Panalytical), with a cell volume of 200 μl and a 40-μl microsyringe. Experiments were performed at 25 °C while stirring at 750 rpm in ITC buffer (50 mM phosphate buffer at pH 8.0). The microsyringe was loaded with a solution of the respective compounds, with the concentration measured by quantitative nuclear magnetic resonance, and was inserted into the calorimetric cell prefilled with the respective recombinant proteins of known concentration in ITC buffer. The system was equilibrated to 25 °C and an extra delay of 60 s was applied. The first titrations were performed using an initial control injection of 0.5 μl, followed by 18 identical injections of 2 μl, with a duration of 4 s per injection and 150-s intervals between injections. The second titration was performed over the first titration without cleaning the cell and was carried out with continuous injections as an automation method in a MicroCal Auto-iTC200. The second titrations were performed using 19 identical injections of 2 μl, with a duration of 4 s per injection and 150-s injection intervals. The data were corrected for ligand heats of dilution and were deconvoluted using MicroCal PEAQ-ITC Analysis Software to yield the enthalpy of binding (ΔH) and the binding constant (K). Thermodynamic parameters were calculated using the basic equation of thermodynamics (ΔG = ΔH – TΔS = –RTlnKd), where ΔG, ΔH and ΔS are the changes in free energy, enthalpy and entropy of binding, respectively; Kd is the equilibrium dissociation constant; T is the absolute temperature (kelvins); and R is the gas constant (1.987 cal mol^−1 K^−^1). A single-binding-site model was used in MicroCal PEAQ-ITC Analysis Software v.0.9.

[1] = Drug concentration in mouse blood after oral dosing; format: in vivo; details: female, whole blood (dried blood spots), day 5, read-out: Drug concentration, 4-h time point
Procedure: The LPA gene (GenBank accession code NM_005577) encoding the human apo(a) protein with a signal peptide, one KIV type 1, six KIV type 2 repeats, one each of KIV types 3–10, one KV and one protease domain was subcloned into a transgenic vector containing a mouse albumin promoter cassette and a human growth hormone polyadenylation signal. The transgenic mouse line was generated by pronucleus injection of the LPA transgenic vector. Eight individual transgenic founder mice were assessed for germline transmission of LPA by genotyping and assessment of the levels of apo(a) in the plasma. Positive founder mice were crossed with ApoB100 transgenic mice (Taconic model 1004), and the resulting mouse line nomenclature (B6.SJL-Tg(APOB)1102Sgy Tg(Alb-LPA)32Arte) was selected on the basis of the confirmation of germline transmission, the identification of LPA and huApoB100 transgenes and the levels of Lp(a) in the plasma. Mice hemizygous for both transgenes were used for pharmacology studies. The studies were conducted in female Lp(a) double transgenic mice (age around 7–17 months). Mice were housed in cages with a standard light cycle (12-h light, 12-h dark), at room temperature (22 ± 4 °C), with a relative humidity of 30–70%. Mice were identified by numbers on the cage cards. After arrival, mice were fed on a normal diet (Harlan Teklad diet 2014). Mice were randomized to treatment groups (n = 5 per group, unless otherwise noted) by body weight and baseline plasma Lp(a) concentration using a block randomized allocation tool (BRAT) for the study. In an example Lp(a) transgenic mouse study in which 66 mice were prescreened for baseline Lp(a) levels, the average Lp(a) level was 45 ± 1.8 µg ml^−1 (range 20–78 µg ml^−1). Mice were dosed with various compounds in vehicle (10 ml kg^−1, 1% hydroxyethyl cellulose (HEC), 0.25% Tween-80, Antifoam) or with vehicle alone as a control orally BID for five days. Blood samples were collected by tail bleeds at designated times, and Lp(a) levels were determined by ELISA by an investigator who was blinded to group allocation. In brief, lipoprotein particles were captured by a goat anti-Lp(a)-antibody-coated plate (Abcam ab31675, diluted 1:12,500 in HEPES-buffered saline), the plates were washed and samples were detected using an HRP-conjugated goat anti-apoB antibody (Abcam ab27622, diluted 1:3,000). Colorimetric peroxidase substrate 3,3’,5,5’-TMB was added, and the reaction was stopped using 1 N sulfuric acid. Absorbance at 450 nm was read on a Molecular Devices SpectraMax plate reader. Blood samples were collected at four hours after dosing on day 5 of dosing to confirm exposure. Full pharmacokinetic (PK) profiles were not evaluated. Concentrations of compounds were evaluated from dried blood spots through a non-Good Laboratory Practice (GLP) liquid chromatography with tandem mass spectrometry (LC–MS/MS) assay. Data were analysed in GraphPad Prism v.9.5.1

[2] = Pharmacokinetics in monkey plasma after oral dosing; format: in vivo
[3] = cynomolgus, oral 20 mg/kg, day 14
[4] = cynomolgus, oral 40 mg/kg, day 14
[5] = cynomolgus, oral 2 mg/kg, day 14
[6] = cynomolgus, oral 10 mg/kg, day 14

Structure (SMILES) | binding to KIV2 (apo(a) KIV2) | concentration at 4 h ([1]; oral 3 mg/kg) [nM] | concentration at 4 h ([1]; oral 10 mg/kg) [nM] | concentration at 4 h ([1]; oral 30 mg/kg) [nM] | Kd (apo(a) KIV2) [nM] | Fold-difference (KIV2:KIV8) (apo(a) KIV2) | concentration at 4 h ([1]; oral 1 mg/kg) [nM] | further results
Cl.O=C(O)[C@@H](Cc1ccccc1)[C@H]1CCNC1 [LSN3353871] | does not bind | 13600 | 21600 | 28000 |  |  |  | concentration at 4 h ([1]; oral 100 mg/kg): 38000 nM; Cmax [2, 3]: 22300 nM; Tmax [2, 3]: 1.5 ± 0.5 h; AUC(0-t) ([2]; cynomolgus, oral 20 mg/kg, day 14, read-out: AUC(0–12 h)): 136 µM·h; Cmax [2, 4]: 29600 nM; Tmax [2, 4]: 1.5 ± 0.5 h; AUC(0-t) ([2]; cynomolgus, oral 40 mg/kg, day 14, read-out: AUC(0–12 h)): 210 µM·h
Cl.Cl.O=C(Nc1cccc(C[C@H](C(=O)O)[C@H]2CCNC2)c1)Nc1cccc(C[C@H](C(=O)O)[C@H]2CCNC2)c1 [LSN3441732] | ruled out | 432 ± 203 | 465 ± 167 | 625 ± 184 | 130000 | >13000 | 147 ± 126 | Cmax [2, 5]: 754 ± 428 nM; Tmax [2, 5]: 3.81 ± 2.14 h; AUC(0-t) ([2]; cynomolgus, oral 2 mg/kg, day 14, read-out: AUC(0-96 hr)): 5.63 µM·h; Cmax [2, 6]: 4380 nM; Tmax [2, 6]: 2.06 ± 1.32 h; AUC(0-t) ([2]; cynomolgus, oral 10 mg/kg, day 14, read-out: AUC(0-96 hr)): 22.2 µM·h
O=C(O)[C@@H](Cc1cccc(CN(Cc2cccc(C[C@H](C(=O)O)[C@H]3CCNC3)c2)Cc2cccc(C[C@H](C(=O)O)[C@H]3CCNC3)c2)c1)[C@H]1CCNC1 [LY3473329] |  | 97.3 ± 39.1 | 215 ± 34.6 | 264 ± 39.3 | 3900 | 177 | 28.4 ± 11 | Cmax ([2]; Chinese cynomolgus, oral 1 mg/kg, day 15): 911 ± 225 nM; AUC(0-t) ([2]; Chinese cynomolgus, oral 1 mg/kg, day 15, read-out: AUC(0-96 hr)): 35.8 µM·h; Tmax ([2]; Chinese cynomolgus, oral 10 mg/kg, day 15): 0.5 h; Cmax ([2]; Chinese cynomolgus, oral 100 mg/kg, day 15): 4850 nM
